Reference: US9315502B2, “Imidazopyridine derivatives” (Hoffmann-La Roche Inc., priority 2012, dated 2016)

How the values were obtained:
[1] = test system: human embryonic stem cell derived neural stem cells (NSCs); assay: Neural Stem Cell Proliferation Assay (neurogenesis assay, ATP levels by CellTiterGlo); type: cell-based; conditions: 96 h, compound concentration at which 150% activity of control (100%) is reached, NSC proliferation, 4 days incubation
Procedure: Neural Stem Cell Proliferation Assay
Neurogenic properties of small molecules are determined based on the proliferation of human embryonic stem cell derived neural stem cells (NSCs) which were derived via a dual smad inhibition as previously described (Chambers, S. M., et al., Highly efficient neural conversion of human ES and iPS cells by dual inhibition of SMAD signaling, Nature biotechnology, 2009. 27(3): p. 275-80.)
Compounds respond is measured by the increase in cells based on ATP levels
(Promega:CellTiterGlo®) after an incubation period of 4 days.
NSCs are thawed and expanded over 3 passages. On the 14th day, NSCs are seeded in Polyornithin/Laminin coated 384 well plates at a cell density of 21′000 cells/cm^2 in a media volume of 38 μl.
4 hours after cell seeding, compound solutions are added at a volume of 2 μl. Stock solutions of the compounds (water, 5% DMSO) are diluted to obtain a dose response (11 points, dilution factor is 2), ranging from 8 μM to 8 nM. Controls are run to consistently determine the neurogenic properties of the cells:
Negative (neutral) control is cell culture Media (final DMSO concentration: 0.25%). Positive controls are: • 1. cell culture Media+100 ng/ml FGF2 (final DMSO concentration: 0.1%) • 2. cell culture Media+20 ng/ml EGF (final DMSO concentration: 0.1%) • 3. cell culture Media+100 ng/ml Wnt3a (final DMSO concentration: 0.1%)
After 4 days incubation at 37° C., 5% CO2, the amount of ATP per well is quantified. The ATP concentration is proportional to the cell number. ATP is quantified by using the Promega CellTiterGlo® kit. The CellTiterGlo® reagents contain a cell lysis buffer, a thermo stable luciferase (UltraGlo™ recombinant luciferase), magnesium and luciferin. Luciferin reacts with ATP producing oxyluciferin, AMP and light. The luminescence signal is proportional to the ATP content.
The value of negative (neutral) control is determined for each assay plate by taking the average of 16 negative control wells. The neurogenic compound response is calculated for each compound as (compound/Negative Control)* 100.
The values of EC150 from the dose response curve are determined for each test compound. The EC150 is the compound concentration at which 150% activity of control (100%) is reached.

| SMILES | EC (150% of control) [1] [µM] | melting point [°C] |
| --- | --- | --- |
| Fc1ccc(-c2cnc3ccc(-c4ccnn4-c4ccc(Cl)cc4)cn23)cc1 [Example 3, 6-[2-(4-Chloro-phenyl)-2H-pyrazol-3-yl]-3-(4-fluoro-phenyl)-imidazo[1,2-a]pyridine] | 0.096 | 147 |
| c1ccc(-c2cnc3ccc(-c4ccnn4-c4ccccc4)cn23)cc1 [Example 8, 3-Phenyl-6-(2-phenyl-2H-pyrazol-3-yl)-imidazo[1,2-a]pyridine] | 0.019 | 139 |
| Fc1ccc(-c2cnc3ccc(-c4cncn4-c4ccc(F)cc4)cn23)cc1 [Example 16, 3-(4-Fluoro-phenyl)-6-[3-(4-fluoro-phenyl)-3H-imidazol-4-yl]-imidazol[1,2-a]pyridine] | 0.053 | 206 |
| Fc1ccc(-c2cnc3ccc(-c4ccnn4-c4ccc(F)cc4)cn23)cc1 [Example 1, 3-(4-Fluoro-phenyl)-6-[2-(4-fluoro-phenyl)-2H-pyrazol-3-yl]-imidazo[1,2-a]pyridine] | 0.019 | 172 |
| Fc1cc(Cl)ccc1-c1cnc2ccc(-c3ccnn3-c3ccc(Cl)cc3)cn12 [Example 11, 3-(4-Chloro-2-fluoro-phenyl)-6-[2-(4-chloro-phenyl)-2H-pyrazol-3-yl]-imidazo[1,2-a]pyridine] | 0.089 | 148 |
| Fc1ccc(-c2cnc3ccc(-c4ccnn4-c4ccc(C(F)(F)F)cc4)cn23)cc1 [Example 23, 3-(4-Fluoro-phenyl)-6-[2-(4-trifluoromethyl-phenyl)-2H-pyrazol-3-yl]-imidazo[1,2-a]pyridine] | 0.79 | 147 |
| Fc1ccc(-n2nccc2-c2ccc3ncc(-c4ccc(F)cc4F)n3c2)cc1 [Example 14, 3-(2,4-Difluoro-phenyl)-6-[2-(4-fluoro-phenyl)-2H-pyrazol-3-yl]-imidazo[1,2-a]pyridine] | 0.053 | 168 |
| Clc1ccc(-c2cnc3ccc(-c4ccnn4-c4ccc(Cl)cc4)cn23)cc1 [Example 2, 3-(4-Chloro-phenyl)-6-[2-(4-chloro-phenyl)-2H-pyrazol-3-yl]-imidazo[1,2-a]pyridine] | 0.1 | 172.5 |
| N#Cc1ccc(-c2cnc3ccc(-c4ccnn4-c4ccc(Cl)cc4)cn23)cc1 [Example 20, 4-{6-[2-(4-Chloro-phenyl)-2H-pyrazol-3-yl]-imidazo[1,2-a]pyridin-3-yl}-benzonitrile] | 0.04 | 208 |
| N#Cc1ccc(-c2cnc3ccc(-c4ccnn4-c4ccc(C(F)(F)F)cc4)cn23)cc1 [Example 24, 4-{6-[2-(4-Trifluoromethyl-phenyl)-2H-pyrazol-3-yl]-imidazo [1,2-a]pyridin-3-yl}-benzonitrile] | 2.6 | 201 |
| Fc1ccc(-n2nccc2-c2ccc3ncc(-c4ccc(C(F)(F)F)cc4)n3c2)cc1 [Example 18, 6-[2-(4-Fluoro-phenyl)-2H-pyrazol-3-yl]-3-(4-trifluoromethyl-phenyl)-imidazo[1,2-a]pyridine] | 0.18 | 172 |
| CS(=O)(=O)c1ccc(-c2cnc3ccc(-c4ccnn4-c4ccc(F)cc4)cn23)cc1 [Example 22, 6-[2-(4-Fluoro-phenyl)-2H-pyrazol-3-yl]-3-(4-methanesulfonyl-phenyl)-imidazo[1,2-a]pyridine] | 0.24 | 226 |
| COc1ccc(-c2cnc3ccc(-c4ccnn4-c4ccc(Cl)cc4)cn23)cc1 [Example 12, 6-[2-(4-Chloro-phenyl)-2H-pyrazol-3-yl]-3-(4-methoxy-phenyl)-imidazo [1,2-a]pyridine] | 0.045 | 142 |
| N#Cc1ccc(-c2cnc3ccc(-c4ccnn4-c4ccc(F)cc4)cn23)cc1 [Example 19, 4-{6-[2-(4-Fluoro-phenyl)-2H-pyrazol-3-yl]-imidazo [1,2-a]pyridin-3-yl}-benzonitrile] | 0.03 | 215 |
| FC(F)(F)c1ccc(-c2cnc3ccc(-c4ccnn4-c4ccc(Cl)cc4)cn23)cc1 [Example 17, 6-[2-(4-Chloro-phenyl)-2H-pyrazol-3-yl]-3-(4-trifluoromethyl-phenyl)-imidazo[1,2-a]pyridine] | 0.38 | 167 |
| Fc1ccc(-n2nccc2-c2ccc3ncc(-c4ccc(Cl)cc4)n3c2)cc1 [Example 4, 3-(4-Chloro-phenyl)-6-[2-(4-fluoro-phenyl)-2H-pyrazol-3-yl]-imidazo [1,2-a]pyridine] | 0.092 | 171 |
| COc1ccc(-c2cnc3ccc(-c4ccnn4-c4ccc(F)cc4)cn23)cc1 [Example 13, 6-[2-(4-Fluoro-phenyl)-2H-pyrazol-3-yl]-3-(4-methoxy-phenyl)-imidazo [1,2-a]pyridine] | 0.024 | 162 |
| Clc1ccc(-n2nccc2-c2ccc3ncc(-c4ccncc4)n3c2)cc1 [Example 7, 6-[2-(4-Chloro-phenyl)-2H-pyrazol-3-yl]-3-pyridin-4-yl-imidazo[1,2-a]pyridine] | 0.022 | 186 |
| Cc1ccc(-n2nccc2-c2ccc3ncc(-c4ccc(F)cc4)n3c2)cc1 [Example 5, 3-(4-Fluoro-phenyl)-6-(2-p-tolyl-2H-pyrazol-3-yl)-imidazo[1,2-a]pyridine] | 0.008 | 141 |
| Fc1ccc(-n2nccc2-c2ccc3ncc(-c4ccncc4)n3c2)cc1 [Example 6, 6-[2-(4-Fluoro-phenyl)-2H-pyrazol-3-yl]-3-pyridin-4-yl-imidazo [1,2-a]pyridine] | 0.026 | 201 |
| Cc1ccc(-n2nccc2-c2ccc3ncc(-c4ccccc4)n3c2)cc1 [Example 10, 3-Phenyl-6-(2-p-tolyl-2H-pyrazol-3-yl)-imidazo[1,2-a]pyridine] | 0.009 | 107 |
| CS(=O)(=O)c1ccc(-c2cnc3ccc(-c4ccnn4-c4ccc(Cl)cc4)cn23)cc1 [Example 21, 6-[2-(4-Chloro-phenyl)-2H-pyrazol-3-yl]-3-(4-methanesulfonyl-phenyl)-imidazo[1,2-a]pyridine] | 0.25 | 259 |
| Fc1ccc(-n2nccc2-c2ccc3ncc(-c4ccc(Cl)cc4F)n3c2)cc1 [Example 9, 3-(4-Chloro-2-fluoro-phenyl)-6-[2-(4-fluoro-phenyl)-2H-pyrazol-3-yl]-imidazo[1,2-a]pyridine] | 0.055 | 187 |
| Fc1ccc(-c2cnc3ccc(-c4ccnn4-c4ccc(Cl)cc4)cn23)c(F)c1 [Example 15, 6-[2-(4-Chloro-phenyl)-2H-pyrazol-3-yl]-3-(2,4-difluoro-phenyl)-imidazo[1,2-a]pyridine] | 0.029 | 152 |
